# Earlier results in US7871609B2, “Supplements for pain management” (priority 2007, dated 2011).
# Where a name gives a salt, the structure may show the parent alone. Read-outs that look alike come from different tables or passages of the source.
# Columns and labels:
# [1] = system: cells in tissue culture that express PMP22 mutants; conditions: cells expressing PMP22 mutants
# [2] = system: forced swimming test; conditions: chronic treatment 14 days, 1.25, 2.5, 5 and 10 mg/kg, p.o.
# [3] = system: bilateral olfactory bulbectomy (OB) model
# [4] = system: NF-kappaB signalling in human articular chondrocytes
# [5] = system: chronically stressed rats
# [6] = system: Trembler-J mouse model
# [7] = system: spasmodic dysmenorrhea; conditions: 556 girls aged 12-21 yr, oral daily dose of 100 mg for 90 days
# [8] = system: tumors or masses
# [9] = system: cultured cerebellar granule neurons (CGNs); conditions: exposure to amprolium
# [10] = system: osteoarthritis (OA) of the knee
# [11] = system: homocysteine-induced atherosclerosis; conditions: day 14, homocysteine thiolactone intake, supplemented versus deficient rats
smiles,measurement,setting,value
"COc1cc(/C=C/C(=O)CC(=O)/C=C/c2ccc(O)c(OC)c2)ccc1O [Curcumin, diferuloylmethane]",apoptosis,[1],reduced apoptosis
same,immobility time,[2],reduced the immobility time
same,"OB-induced behavioral abnormalities (hyperactivity in open field, deficits in step-down passive avoidance)",[3]; chronic administration p.o.,reversed
same,"OB-induced changes of 5-HT, NA, 5-HIAA and DOPAC in the hippocampus","[3]; rat, in vivo",completely reversed
same,"OB-induced decrease in 5-HT, NA and DA levels in the frontal cortex","[3]; rat, in vivo",also reversed
same,IL-1beta-induced down-regulation of collagen type II and beta1-integrin receptor expression,[4],reversed
same,IL-1beta-induced stimulation of protein kinase B Akt,[4],inhibited
same,IL-1beta-induced NF-kappaB activation,"[4]; via inhibition of IkappaBalpha phosphorylation and degradation, p65 phosphorylation and nuclear translocation",suppressed
same,expression of NF-kappaB targets COX-2 and MMP-9,[4]; western blotting,down-regulation
same,hippocampal neurogenesis,"[5]; 10 and 20 mg/kg, p.o., 20 days chronic stress",increased hippocampal neurogenesis
same,5-HT(1A) mRNA and BDNF protein levels in the hippocampal subfields,[5]; chronic stress,significantly prevented the stress-induced decrease
same,motor performance,"[6]; mouse, in vivo",improved motor performance
same,myelinated axons in sciatic nerves,"[6]; mouse, in vivo",increased number and size
same,neuropathy phenotype,"[6]; oral administration, dose-dependent",partially mitigates the severe neuropathy phenotype
same,percentage of apoptotic Schwann cells,[6]; sciatic nerves,significantly decreases
"Cc1ncc(C[n+]2csc(CCO)c2C)c(N)n1 [Vitamin B1, thiamine]",completely cured,[7],87%
same,no effect whatsoever,[7],5%
same,relieved (pain almost nil to reduced),[7],8%
same,cases of Baker's cyst cured without recurrence,[8]; thiamin alone injected,13 out of 15
same,cases of submandibular gland cyst cured without recurrence,[8]; thiamin alone injected,Two
CCCc1ncc(C[n+]2ccccc2C)c(N)n1 [amprolium],effect on cerebellar granule neurons,[9],caused apoptosis and the generation of reactive oxygen species
O=C(O)Cc1ccccc1Nc1c(Cl)cccc1Cl [diclofenac],mean Lequesne's Algofunctional Index (LFI) at end,[10]; after the 6-week observation period,9.4
same,mean Lequesne's Algofunctional Index (LFI) at start,[10]; before the 6-week observation period,12.5
same,tolerability judgment,[10]; majority of patients,very good or good
same,"global judgment of efficacy by physician, at least good ratings","[10]; share of patients, 6 weeks",37.2%
CN(C)CCCN1c2ccccc2CCc2ccccc21 [imipramine],hippocampal neurogenesis,"[5]; 10 mg/kg, i.p.",increased hippocampal neurogenesis
Cc1ncc(C[n+]2csc(CCO)c2C)c(N)n1 [thiamin HCl],osteosarcoma circumference before treatment,"[8]; one case, pathology-confirmed",30 cm
same,osteosarcoma circumference after treatment,"[8]; subcutaneous perfusion of 300 once only, within 2 days",20 cm
same,equivalent reduction in osteosarcoma volume,[8]; within 2 days,50-75%
"Cc1ncc(CO)c(CO)c1O [vitamin B-6, pyridoxine]",aortic lesions,[11],not in vitamin B6-supplemented rats
